Laboratory results reported in ChEMBL document CHEMBL4808169, “Discovery of Potent and Fast-Acting Antimalarial Bis-1,2,4-triazines” (J Med Chem, 2021).

Experiments:
[1] = AUC (0 to infinity) in Swiss mouse plasma at 2.8 mg/kg, po measured up to 24 hrs by LC-MS analysis
[2] = AUC (0 to infinity) in Swiss mouse plasma at 2.7 mg/kg, iv measured up to 24 hrs; assay type: ADME, organism-based; set-up: route intravenous, dose 2.7 mg/kg, time <=24
[3] = Drug metabolism in mouse liver microsomes assessed as oxygenated metabolite M+16(1) formation by LC-MS/MS(CID) analysis; assay type: ADME, Microsome
[4] = Intrinsic clearance in mouse hepatocytes assessed per million cells by UPLC-MS analysis; assay type: ADME, cell-based, Hepatocyte; details: read-out: CLH
[5] = Drug metabolism in rat hepatocytes assessed as N-methyl-2-(3'-propoxy-5,5'-bi(1,2,4-triazin)-3-yloxy)ethanamine formation by LC-MS/MS(CID) analysis; assay type: ADME, cell-based, Hepatocyte
[6] = Half life in mouse liver microsomes in presence of NADPH by UPLC-MS analysis; assay type: ADME, Microsome

AUC(0-inf) [1]: 0.038 µM·h
AUC(0-inf) [2]: 0.36 µM·h
Drug metabolism [3]: Metabolite_Detected
hepatocyte CLint [4]: 3.7 µL/min/1e6 cells
Drug metabolism [5]: Metabolite_Detected
half-life [6]: 42 min
Structure (SMILES): CCCOc1nncc(-c2cnnc(OCCN(C)C)n2)n1
